Measured values: patent US20260274794A1, “COMPOUNDS, COMPOSITIONS, AND METHOD OF INHIBITING TAU PROTEIN AND ALPHASYNUCLEIN AGGREGATION” (Purdue Research Foundation, priority 2023, published 2026)
Entries after “also recorded” stand apart in the source; their conditions may differ.

Legend:
tau isoform 2N4R = target: T1, tau isoform 2N4R (Homo sapiens, UniProt P10636); assay: Transmission electron microscopy of tau isoform 2N4R fibrils; format: biochemical; settings: compound 100 μM, 50-hours exposure; reproduced at higher concentrations, molar ratio 1:10
T1 construct: made in house; host or cells: E. coli BL21 (DE3), vector pRK172
T1 sequence (P10636 1-441 isoform P10636-8): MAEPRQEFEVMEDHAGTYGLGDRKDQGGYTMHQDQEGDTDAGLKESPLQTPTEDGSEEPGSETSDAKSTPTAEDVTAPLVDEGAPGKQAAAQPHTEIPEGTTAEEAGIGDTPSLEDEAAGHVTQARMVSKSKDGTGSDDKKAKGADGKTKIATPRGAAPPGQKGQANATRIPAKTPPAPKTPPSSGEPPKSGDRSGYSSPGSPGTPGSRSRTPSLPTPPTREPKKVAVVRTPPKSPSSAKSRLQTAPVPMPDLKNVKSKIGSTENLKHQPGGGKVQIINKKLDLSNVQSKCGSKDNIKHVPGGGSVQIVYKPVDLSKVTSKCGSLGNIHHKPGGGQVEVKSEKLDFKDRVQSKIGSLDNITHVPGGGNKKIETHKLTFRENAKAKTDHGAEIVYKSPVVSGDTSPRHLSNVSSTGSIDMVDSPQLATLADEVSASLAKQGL
Procedure: For the examination of ultrastructural changes, 60 μM of proteins (α-syn and tau isoform 2N4R) in contact with DMSO or 600 μM of compound were incubated in a 10 mM PBS buffer (pH 7.4) for 24 h at 37° C. (molar ratio 1:10). Samples at the end of tau ThT kinetics of fibril formation were also analyzed at similar molar ratio with 6 time less concentrated samples. For the preparation of grids prior examination, a volume of 10 μL if each sample was applied on a 400-mesh Formvar-carbon-coated copper grid (Electron Microscopy Sciences, Hatfield, PA). The grids were incubated for 1 minute with the sample and after washed three times with distilled water, After being air-dried, a fresh solution of 1% uranyl acetate was applied for 1 minute. Solution was absorbed with filter paper and grids were air-dried. Evaluation of grids were performed using a transmission microscope (JEOL 1400 Flash, Japan). Transmission electron micrographs were captured using an accelerating voltage of 100 kV and magnification of 40 k.
To confirm that the reduction of ThT fluorescence observed with compounds 2, 8, and 17 was due to the reduction in protein fibrillization rather than interference with ThT [31], transmission electron microscopy (TEM) of α-syn and tau isoform 2N4R with these same compounds was utilized to visualize direct changes in α-syn and tau isoform 2N4R fibril morphology after 24-hours exposure (FIG. 5). […] Results were reproduced using the tau isoform 2N4R and different compounds at the above-mentioned higher concentrations using the identical molar ratio and incubation time. […] Compound 2 was the only candidate resulting in a grid quasi exempt of fibrils.

[1] = system: M17D-TR/αS-3K::YFP neuroblastoma cells; assay: α-Syn inclusion assay in dox-inducible neuroblastoma cells; format: cell-based; settings: for reduction of inclusions: lower concentrations (below 40 μM)
Procedure: Dox-inducible neuroblastoma cells M17D-TR/αS-3K::YFP were used according to the published experimental procedure. For this cell-based assay, the cellular density consisted of 30,000 cells per well in a 96-well plate format. After 24 h of seeding the plates, compounds were introduced at ranging concentrations of 5 to 40 μM for a period of 24 h. After, the induction of the αS-3K::YFP transgene expression was initiated by adding dox (1 ug per mL, final concentration in culture media). Cells were incubated in the Incucyte Zoom 2000 platform (Essen Biosciences), where the acquisition of images (green, bright field) occurred continuously. After 48 hours of induction, inclusion formation and cell growth were assessed. To determine the level of different proteins by western blotting, α-syn monoclonal antibody 41312 (Thermofisher, Waltham, MA; 1:1000) and GAPDH polyclonal antibody (Sigma-Aldrich, St. Louis, MO, G9545; 1:5000) were used.
To evaluate the effects of compounds on inclusion formation and cell survival, M17D neuroblastoma cells that express an α-syn-derived αS-3K::YFP fusion protein in a doxycycline-inducible fashion were used. The cells were treated with 0.1% DMSO (control) and compounds 13, 2, 8, and 17 at various concentrations at t=24 hrs. Cells were induced with dox at t=48 hours. Punctate YFP signals were measured and normalized to 0.1% DMSO at t=96 hours. Eight independent experiments (N=8; n=14; except DMSO, n=30) were performed. The familial PD-linked α-syn missense mutation E46K is amplified by α-syn E35K+E46K+E61K (=αS3K), which results in round cytoplasmic α-syn-based inclusions in cultured cells. αS3K expression is responsible for cell stress/toxicity and delayed growth of neuroblastoma cells. […] Therefore, this assay was selected to evaluate the effect of the compound 13, as a weak to non-inhibitor of aggregation, and the three best anti-aggregation inhibitors, namely compounds 2, 8, and 17 (FIG. 6). […] Western blot analyses for total α-syn, normalized to calnexin (loading control), were performed to determine the compound effect on α-syn protein level due to degradation or non-specific effect on transgene expression.

α-syn = α-syn (Homo sapiens, UniProt P37840); assay: Western blot (anti-oligo A11, anti-α-syn) of uncross-linked α-syn; format: biochemical; settings: compound 600 μM, α-syn 60 μM, 37° C., 24 hours
Procedure: To validate the PICUP results, the uncross linked α-syn (produced in Dr. Rochet lab) was incubated at a final concentration of 60 μM in 10 mM phosphate buffer (pH 7.4) with the presence of vehicle (1.5% DMSO), the amide compounds of interest (Compounds 2, 8, 17), and the weak anti-fibrillization inhibitor (compound 13). Compounds were tested at a final concentration of 600 μM (molar ratio 1:10). Samples were incubated for 24 h and 48 h with constant shaking 300 rpm at 37° C. (VWR Thermal Shake Touch, Troemner, LLC, Thorofare, NJ). After completion of the incubation time, samples were mixed with one third volume of above-mentioned loading buffer and separated by electrophoresis in a 16% SDS-Page gel. […] Nitrocellulose membranes were exposed to the monoclonal antibodies diluted at 1/1000 using a 5% non-fat dried milk with TBS and 0.1% Tween-20 (TBS-T) for 12 h at 4° C. Peroxidase conjugated secondary antibodies consisted of an anti-rabbit (Rockland Immunochemicals, inc., Pottstown, PA, cat. #611-1322-0100) and an anti-mouse (Rockland, cat. #610-1319-0100) utilized at a dilution of 1/5000 in 5% non-fat dried milk with TBS-T for one hour at room temperature. The membranes were then exposed to a 1:1 ratio of enhanced chemiluminescent solution (Thermo Scientific, Rockford, IL, cat. #32209) for one minute before the acquisition of images using a SynGene G;Box scanner (model Chemi XR 5 and the G:Box Chemi-XRQ GENESYS software.
One limitation of the PICUP is the generation of free radicals which can be quenched by aromatic compounds resulting in false positives. For this reason, results obtained by PICUP were validated using the uncross-linked α-syn. High concentration of different compounds (600 μM; molar ratio of 1:10) were incubated at 37° C. for 24 hours with 60 μM of α-syn and separated by electrophoresis in 16% SDS-PAGE gels. Western blots using polyclonal anti-oligo A11 and monoclonal anti-α-syn were assessed to detect the high molecular weight oligomers and monomeric α-syn, respectively.

| Structure (SMILES) | tau isoform 2N4R fibril morphology (TEM) (tau isoform 2N4R) | reduction of inclusions [1] | oligomeric species bands of uncross-linked α-syn (Western blot) (α-syn) | toxicity (confluence) ([1]; 40 μM) | inclusion formation ([1]; 40 μM, M17D αS3K cells) | α-syn protein level (Western blot) ([1]; low concentration (5-10 μM) only) |
| --- | --- | --- | --- | --- | --- | --- |
| O=C(Nc1cccc2[nH]ccc12)c1ccccc1 [Compound 2, N-(1H-indol-4-yl)benzamide] | levels of tau fibril at 20 μM were reduced; also recorded: Fewer and not well-defined fibrils | None of these compounds exhibited a significant reduction of inclusions | narrow, less intense bands compared to control |  |  |  |
| O=C(Nc1ccc2[nH]ccc2c1)c1ccccc1Cl [Compound 13, 2-chloro-N-(1H-indol-5-yl)benzamide] | long fibrils admixed with amorphous materials and/or debris | None of these compounds exhibited a significant reduction of inclusions | did not reduce the intensity of the bands |  |  |  |
| O=C(Nc1cccc2[nH]ccc12)c1ccc(F)cc1 [Compound 8, 4-fluoro-N-(1H-indol-4-yl)benzamide] | levels of tau fibril at 20 μM were reduced | None of these compounds exhibited a significant reduction of inclusions | narrow, less intense bands compared to control | small degree of toxicity | reduced inclusion formation | reduced α-syn levels |
